Data as given in patent publication US20060264497A1, “Diindolylmethane-based compositions and methods of use thereof for promoting oral mucosal and bone health” (priority 2005, published 2006).
Marks after values point to notes of the source that are not given here.

Columns and labels:
[1] = Dissolution of DIM containing particles (release rate profile); assay type: physicochemical; conditions: pH 6.8 phosphate buffer, 0.5% Tween 80, 37° C., 50 rpm
Description: Testing of Dissolution of DIM Containing Particles: In order to determine the release rate profiles of DIM from matrix, particle formulations, a test using pH 6.8 phosphate buffer system containing 0.5% Tween 80 was utilized. The procedure included dissolving an amount of spray dried particles containing a known amount of DIM in a standard dissolution apparatus with standard simulated saliva solution. For the following testing, 900 ml of stock pH 6.8 buffer solution was placed into a round bottom beaker in the dissolution test apparatus. To the solution, 5 g of Tween 80 (Sorbitan Monooleate) was added and mixed while bringing to a temperature of 37° C. To this, 600 mg of a test sample with known DIM content was added to the solution and stirred at 50 rpm. At timed intervals 3.0 ml aliquots of solution was removed and filtered through 0.22 um filter. The absorption of the sample was read at 283 nm on an […], blanking vs. pH 6.8 buffer containing 0.5% Tween 80. The percent released DIM compared to the 100% complete, theoretical level was calculated.

[2] = test system: osteoclasts in metaphyseal bone; assay: Bone histomorphometry: osteoclast number after one year feeding of DIM or I3C; assay type: in vivo, rats; conditions: 1 year; for Osteoclast Cell Number in Metaphyseal Bone: DIM 20 mg/kg/day (BioResponse-DIM), I3C 50 mg/kg/day in diet
Description: A one year study was conducted including evaluation of the impact of chronic feeding of DIM and I3C versus control diet in rats. The study used a dose of 20 mg/kg/day DIM, formulated for increased absorption (BioResponse-DIM, BioResponse, Boulder, Colo. [Example 1]), and 50 mg/kg/day Indole-3-Carbinol (I3C) (Sigma Chemical, St. Louis, Mo.). Bone histomorphometry was performed comparing metaphyseal bone in male and female animals using established techiques (Huffer W E, Ruegg P, Zhu J M, Lepoff R B., Semiautomated methods for cancellous bone histomorphometry using a general-purpose video image analysis system. J Microsc. 1994 January; 173 (Pt 1):53-66). Counts of osteoclast number, averaged for male and female groups are summarized in the following chart: […]

[3] = cited from earlier work
[4] = test system: mouse osteoclast-like multinucleated cells (OCLs); assay: Pit formation assay on dentine slices; conditions: 0.5-50 micromolar, 24 h and 48 h
Description: Osteoblasts will be obtained from the calvariae of newborn ddY mice and bone marrow cells will be obtained from the tibiae of male mice and be cocultured in aMEM (Life Technologies, Grand Island, N.Y.) containing 10% FBS, 1α,25-dihydroxyvitamin D3 (10^−8 M) (Wako Pure Chemical, Osaka, Japan) and PGE2 (10^−6 M) (Sigma) in 100-mm-diameter dishes coated with collagen gels (Nitta Gelatin, Osaka). OCLs will be formed within 6 days in culture and will be removed from the dishes by treating with 0.2% collagenase (Wako). The purity of OCLs in this fraction (crude OCL preparation) will be about 5%. To further purify the OCLs, the crude OCL preparation will be replated on culture dishes. After further culture for 8 h, osteoblasts will be removed with PBS containing 0.001% pronase E (Calbiochem, La Jolla, Calif.) and 0.02% EDTA.
OCLs preparations (15,000 cells/0.1 ml/well) will be seeded on dentine slices (4-mm diameter) which had been placed in 96-well plates. […] Pit formation by OCls will be determined after culture for 24 h and 48 h. […] The numbers of pits on the slices will be counted. To quantitate pit-forming activity of OCLs, the areas of resorption lacunae will also be measured with an image analysis system (LA-525; PIAS Co., Tokyo). The results will be expressed as the percentage of resorbed area with respect to the whole surface area of a dentine slice.

rat bone osteoclasts = conditions: Gao and Yamaguchi 1999; cited from earlier work
[5] = Case report: DIM treatment of a subject with rheumatoid arthritis and gingivitis; assay type: in vivo, human; conditions: oral, subject with rheumatoid arthritis
Description: (§1) A person with a diagnosis of rheumatoid arthritis was referred for Diinolylmethane (DIM) treatment due to intolerance of oral Plaquenil®. […] They had diffuse small joint pain and elevated Rheumatoid Factor and Antinuclear Antigen serum titers. […] On probing, a total of 12 bleeding sites were documented. They began taking DIM (BioResponse-DIM 150, BioResponse, Boulder, Colo.) taking 50 mg of DIM twice daily.
as §1, with “daily. […] Subsequently they discontinued use of DIM and noted gradual return of painful swollen joints in their hands over 2 months.” for “daily.”

SMILES: c1ccc2c(Cc3c[nH]c4ccccc34)c[nH]c2c1 [Microcrystalline DIM, 3,3′-diindolylmethane]
- Percent DIM Released from Particle ([1]; 0 minutes): 0%
- Percent DIM Released from Particle ([1]; 15 minutes): 55.1%
- Percent DIM Released from Particle ([1]; 30 minutes): 73.6%
- Percent DIM Released from Particle ([1]; 45 minutes): 78.8%
- Percent DIM Released from Particle ([1]; 60 minutes): 83.5%

SMILES: OCc1c[nH]c2ccccc12 [I3C, Indole-3-carbinol, reference compound]
- Osteoclast Cell Number in Metaphyseal Bone ([2]; female rats): 18.3
- Osteoclast Cell Number in Metaphyseal Bone ([2]; male rats): 14.3*

SMILES: CC(C)Oc1ccc2c(=O)c(-c3ccccc3)coc2c1 [Ipriflavone, 3-phenyl-7-propan-2-yloxy-chromen-4-one]
- Measures of bone health ([3]; 600 mg/day, 3 years of treatment, controlled trial): no significant improvement

SMILES: c1ccc2c(Cc3c[nH]c4ccccc34)c[nH]c2c1 [DIM, 3,3′-diindolylmethane]
- Osteoclast Cell Number in Metaphyseal Bone ([2]; female rats): 14.3
- Osteoclast Cell Number in Metaphyseal Bone ([2]; male rats): 9.3*
- Change in osteoclast number versus I3C treated and control animals ([2]; rats): reduction in osteoclast number
- Pit formation by OCLs (osteoclast function and survival) [4]: inhibition of pit formation

SMILES: O=c1c(-c2ccc(O)cc2)coc2cc(O)cc(O)c12 [Genistein, 4′,5,7-trihydroxyisoflavone]
- Bone mineral density ([3]; 52 mg/day, year long clinical trial): failed to show any measurable improvement
- Serum and urinary indicators of ongoing bone loss ([3]; 90 mg/day, clinical trial): failed to reduce
- Potency of inhibiting the function of osteoclasts relative to daidzein (rat bone osteoclasts): about 10 times

SMILES: CCN(CCO)CCCC(C)Nc1ccnc2cc(Cl)ccc12 (stereo not shown) [Plaquenil]
- Tolerance (adverse effect) [5]: unacceptable dizziness
